In US11896573B2, “Pharmaceutical compositions and pharmacokinetics of a gamma-hydroxybutyric acid derivative” (priority 2020, dated 2024):
Like-named read-outs stand apart in the source and are kept apart here.

Assay: Multiple ascending dose study, plasma pharmacokinetics of Compound (1) and GHB
Format: in vivo, human
Conditions: for AUC(0-inf) / AUC(0-t) / Cmax / half-life / Tmax: human, plasma, oral; for Tmax: read-out: Compound (1) plasma Tmax, Median
Procedure: The plasma concentrations of Compound (1) and GHB in plasma in healthy human subjects were measured using liquid chromatography tandem mass-spectroscopy and evaluated using PHOENIX™ WINNONLIN® version 8.1 (Pharsight Corporation, USA) and MICROSOFT® EXCEL® (Microsoft Corporation, USA).
All randomized subjects who received Compound (1), with available pharmacokinetic (PK) data and without relevant deviations interfering with the PK evaluations, were included. Subjects who received only placebo were excluded from the PK population. In addition, the PK population was used for the summaries and analyses of all PK data.
A multiple ascending dose study was undertaken to evaluate the pharmacokinetics of multiple doses of Compound (1) in 3 cohorts of healthy subjects (with 8 subjects/cohort). Within each cohort, the subjects were randomized to receive Compound (1) or placebo at a ratio of 6:2 (active: placebo) for 7 days (or up to 9 days if the cohort included a titration period).
After fasting for at least 3 hours following a standard meal, subjects were randomized on Day 1 and the first dose of study drug (either target dose or titration dose) was administered. The first cohort of subjects (Cohort 8) received the second dose administration at approximately four hours after receiving the first dose. The subsequent […] cohorts (Cohorts 9 and 10) received only one dose per day.
For the first cohort (Cohort 8), the dose used was 6.0 g divided into two equal doses four hours apart for 7 days starting from Day 4 “Dose Day 1” to Day 10 “Dose Day 7”. Subsequent Cohorts 9, 10 received a single daily dose of 4.5 g and 6.0 g during the titration period (Day 1 for Cohort 9, Day 1 and Day 2 for Cohort 10, and after a titration period for 7 days starting from Day 4 “Dose Day 1” to Day 10 “Dose Day 7”. Cohort 11 was not conducted due to API availability.

[1] = Cohort 10 (6.0 g/day in a single dose), Dosing Day 10

With CC(C)[C@H](N)C(=O)OCCCC(=O)O [Compound (1), 4-((L-valyl)oxy)butanoic acid] the “Compound (1) plasma Tmax, Min” value (Cohort 10 (6.0 g/day in a single dose), Dosing Day 4) was 19.8 min, the “Compound (1) CL/F, Max” value [1] was 575 L/h and the “Compound (1) CL/F, Mean” value [1] was 395 L/h. The “Compound (1) CL/F, Median” value [1] was 354 L/h, the “Compound (1) CL/F, Min” value [1] was 284 L/h and the “Compound (1) plasma AUC0-inf, Max” value [1] was 21100 ng·h/mL. The “Compound (1) plasma AUC0-inf, Min” value [1] was 10400 ng·h/mL, the “Compound (1) plasma AUC0-tlast, Max” value [1] was 21100 ng·h/mL and the “Compound (1) plasma AUC0-tlast, Min” value [1] was 10400 ng·h/mL. The “Compound (1) plasma Cmax, Max” value [1] was 24500 ng/mL, the “Compound (1) plasma Cmax, Min” value [1] was 11700 ng/mL and the “Compound (1) plasma T1/2, Max” value [1] was 31.2 min. For the same molecule, the “Compound (1) plasma T1/2, Min” value [1] was 17.4 min, the AUC(0-inf) (4.5 g/day, Cohort 9 (4.5 g/day in a single dose), Dosing Day 4, read-out: Compound (1) plasma AUC0-inf, Mean) was 12000 ng·h/mL and the AUC(0-inf) (4.5 g/day, Cohort 9 (4.5 g/day in a single dose), Dosing Day 4, read-out: Compound (1) plasma AUC0-inf, Median) was 11800 ng·h/mL. The AUC(0-t) (4.5 g/day, Cohort 9 (4.5 g/day in a single dose), Dosing Day 4, read-out: Compound (1) plasma AUC0-tlast, Mean) was 11300 ng·h/mL, the AUC(0-t) (4.5 g/day, Cohort 9 (4.5 g/day in a single dose), Dosing Day 4, read-out: Compound (1) plasma AUC0-tlast, Median) was 11700 ng·h/mL and the Cmax (4.5 g/day, Cohort 9 (4.5 g/day in a single dose), Dosing Day 4, read-out: Compound (1) plasma Cmax, Mean) was 15600 ng/mL. The Cmax (4.5 g/day, Cohort 9 (4.5 g/day in a single dose), Dosing Day 4, read-out: Compound (1) plasma Cmax, Median) was 16800 ng/mL, the half-life (4.5 g/day, Cohort 9 (4.5 g/day in a single dose), Dosing Day 4, read-out: Compound (1) plasma T1/2, Mean (converted)) was 29.4 min and the half-life (4.5 g/day, Cohort 9 (4.5 g/day in a single dose), Dosing Day 4, read-out: Compound (1) plasma T1/2, Median (converted)) was 32.4 min. For the same molecule, the AUC(0-inf) (4.5 g/day, Cohort 9 (4.5 g/day in a single dose), Dosing Day 10, read-out: Compound (1) plasma AUC0-inf, Mean) was 10800 ng·h/mL, the AUC(0-inf) (4.5 g/day, Cohort 9 (4.5 g/day in a single dose), Dosing Day 10, read-out: Compound (1) plasma AUC0-inf, Median) was 10200 ng·h/mL and the AUC(0-t) (4.5 g/day, Cohort 9 (4.5 g/day in a single dose), Dosing Day 10, read-out: Compound (1) plasma AUC0-tlast, Mean) was 10700 ng·h/mL. The AUC(0-t) (4.5 g/day, Cohort 9 (4.5 g/day in a single dose), Dosing Day 10, read-out: Compound (1) plasma AUC0-tlast, Median) was 10100 ng·h/mL, the Cmax (4.5 g/day, Cohort 9 (4.5 g/day in a single dose), Dosing Day 10, read-out: Compound (1) plasma Cmax, Mean) was 14800 ng/mL and the Cmax (4.5 g/day, Cohort 9 (4.5 g/day in a single dose), Dosing Day 10, read-out: Compound (1) plasma Cmax, Median) was 15900 ng/mL. The half-life (4.5 g/day, Cohort 9 (4.5 g/day in a single dose), Dosing Day 10, read-out: Compound (1) plasma T1/2, Mean (converted)) was 33.6 min, the half-life (4.5 g/day, Cohort 9 (4.5 g/day in a single dose), Dosing Day 10, read-out: Compound (1) plasma T1/2, Median (converted)) was 33.6 min and the AUC(0-inf) (6 g/day, Cohort 8 (6.0 g/day divided into equal 2 doses), Dosing Day 4, read-out: Compound (1) plasma AUC0-inf, Mean) was 14500 ng·h/mL. For the same molecule, the AUC(0-inf) (6 g/day, Cohort 8 (6.0 g/day divided into equal 2 doses), Dosing Day 4, read-out: Compound (1) plasma AUC0-inf, Median) was 14800 ng·h/mL, the AUC(0-t) (6 g/day, Cohort 8 (6.0 g/day divided into equal 2 doses), Dosing Day 4, read-out: Compound (1) plasma AUC0-tlast, Mean) was 14400 ng·h/mL and the AUC(0-t) (6 g/day, Cohort 8 (6.0 g/day divided into equal 2 doses), Dosing Day 4, read-out: Compound (1) plasma AUC0-tlast, Median) was 14800 ng·h/mL. The Cmax (6 g/day, Cohort 8 (6.0 g/day divided into equal 2 doses), Dosing Day 4, read-out: Compound (1) plasma Cmax, Mean) was 12100 ng/mL, the Cmax (6 g/day, Cohort 8 (6.0 g/day divided into equal 2 doses), Dosing Day 4, read-out: Compound (1) plasma Cmax, Median) was 11500 ng/mL and the half-life (6 g/day, Cohort 8 (6.0 g/day divided into equal 2 doses), Dosing Day 4, read-out: Compound (1) plasma T1/2, Mean (converted)) was 31.8 min. It also gave a half-life (6 g/day, Cohort 8 (6.0 g/day divided into equal 2 doses), Dosing Day 4, read-out: Compound (1) plasma T1/2, Median (converted)) of 16.2 min, an AUC(0-inf) (6 g/day, Cohort 8 (6.0 g/day divided into equal 2 doses), Dosing Day 10, read-out: Compound (1) plasma AUC0-inf, Mean) of 14900 ng·h/mL and an AUC(0-inf) (6 g/day, Cohort 8 (6.0 g/day divided into equal 2 doses), Dosing Day 10, read-out: Compound (1) plasma AUC0-inf, Median) of 14100 ng·h/mL. The AUC(0-t) (6 g/day, Cohort 8 (6.0 g/day divided into equal 2 doses), Dosing Day 10, read-out: Compound (1) plasma AUC0-tlast, Mean) was 14800 ng·h/mL, the AUC(0-t) (6 g/day, Cohort 8 (6.0 g/day divided into equal 2 doses), Dosing Day 10, read-out: Compound (1) plasma AUC0-tlast, Median) was 14100 ng·h/mL and the Cmax (6 g/day, Cohort 8 (6.0 g/day divided into equal 2 doses), Dosing Day 10, read-out: Compound (1) plasma Cmax, Mean) was 11500 ng/mL. It also gave a Cmax (6 g/day, Cohort 8 (6.0 g/day divided into equal 2 doses), Dosing Day 10, read-out: Compound (1) plasma Cmax, Median) of 11300 ng/mL, a half-life (6 g/day, Cohort 8 (6.0 g/day divided into equal 2 doses), Dosing Day 10, read-out: Compound (1) plasma T1/2, Mean (converted)) of 20.4 min and a half-life (6 g/day, Cohort 8 (6.0 g/day divided into equal 2 doses), Dosing Day 10, read-out: Compound (1) plasma T1/2, Median (converted)) of 16.8 min. It also gave an AUC(0-inf) (6 g/day, Cohort 10 (6.0 g/day in a single dose), Dosing Day 4, read-out: Compound (1) plasma AUC0-inf, Mean) of 17200 ng·h/mL, an AUC(0-inf) (6 g/day, Cohort 10 (6.0 g/day in a single dose), Dosing Day 4, read-out: Compound (1) plasma AUC0-inf, Median) of 19000 ng·h/mL and an AUC(0-t) (6 g/day, Cohort 10 (6.0 g/day in a single dose), Dosing Day 4, read-out: Compound (1) plasma AUC0-tlast, Mean) of 17100 ng·h/mL. It also gave an AUC(0-t) (6 g/day, Cohort 10 (6.0 g/day in a single dose), Dosing Day 4, read-out: Compound (1) plasma AUC0-tlast, Median) of 18900 ng·h/mL, a Cmax (6 g/day, Cohort 10 (6.0 g/day in a single dose), Dosing Day 4, read-out: Compound (1) plasma Cmax, Mean) of 21300 ng/mL and a Cmax (6 g/day, Cohort 10 (6.0 g/day in a single dose), Dosing Day 4, read-out: Compound (1) plasma Cmax, Median) of 23500 ng/mL. The half-life (6 g/day, Cohort 10 (6.0 g/day in a single dose), Dosing Day 4, read-out: Compound (1) plasma T1/2, Mean (converted)) was 24.6 min, the half-life (6 g/day, Cohort 10 (6.0 g/day in a single dose), Dosing Day 4, read-out: Compound (1) plasma T1/2, Median (converted)) was 24 min and the AUC(0-inf) (6 g/day, Cohort 10 (6.0 g/day in a single dose), Dosing Day 10, read-out: Compound (1) plasma AUC0-inf, Mean) was 16400 ng·h/mL. It also gave an AUC(0-inf) (6 g/day, Cohort 10 (6.0 g/day in a single dose), Dosing Day 10, read-out: Compound (1) plasma AUC0-inf, Median) of 16900 ng·h/mL, an AUC(0-t) (6 g/day, Cohort 10 (6.0 g/day in a single dose), Dosing Day 10, read-out: Compound (1) plasma AUC0-tlast, Mean) of 16300 ng·h/mL and an AUC(0-t) (6 g/day, Cohort 10 (6.0 g/day in a single dose), Dosing Day 10, read-out: Compound (1) plasma AUC0-tlast, Median) of 16800 ng·h/mL. For the same molecule, the Cmax (6 g/day, Cohort 10 (6.0 g/day in a single dose), Dosing Day 10, read-out: Compound (1) plasma Cmax, Mean) was 18900 ng/mL, the Cmax (6 g/day, Cohort 10 (6.0 g/day in a single dose), Dosing Day 10, read-out: Compound (1) plasma Cmax, Median) was 20000 ng/mL and the half-life (6 g/day, Cohort 10 (6.0 g/day in a single dose), Dosing Day 10, read-out: Compound (1) plasma T1/2, Mean (converted)) was 21.6 min. For the same molecule, the half-life (6 g/day, Cohort 10 (6.0 g/day in a single dose), Dosing Day 10, read-out: Compound (1) plasma T1/2, Median (converted)) was 21 min, the Tmax (Cohort 8 (6.0 g/day divided into equal 2 doses), Dosing Day 4) was 30 min and the Tmax (Cohort 9 (4.5 g/day in a single dose), Dosing Day 4) was 30 min.
